Where two headings read alike, the source gives them in different places.
Experiments:
[1] = biological target: T1, M-1 receptor (Rattus norvegicus, UniProt P08482); assay: Functional selectivity, rat superior cervical ganglion (methods of J. Med. Chem. (1987), 30, 969-975); format: cell-based; conditions: mean ± S.D. (n = 5)
T1 construct: from tissue
T1 sequence (P08482 1-460): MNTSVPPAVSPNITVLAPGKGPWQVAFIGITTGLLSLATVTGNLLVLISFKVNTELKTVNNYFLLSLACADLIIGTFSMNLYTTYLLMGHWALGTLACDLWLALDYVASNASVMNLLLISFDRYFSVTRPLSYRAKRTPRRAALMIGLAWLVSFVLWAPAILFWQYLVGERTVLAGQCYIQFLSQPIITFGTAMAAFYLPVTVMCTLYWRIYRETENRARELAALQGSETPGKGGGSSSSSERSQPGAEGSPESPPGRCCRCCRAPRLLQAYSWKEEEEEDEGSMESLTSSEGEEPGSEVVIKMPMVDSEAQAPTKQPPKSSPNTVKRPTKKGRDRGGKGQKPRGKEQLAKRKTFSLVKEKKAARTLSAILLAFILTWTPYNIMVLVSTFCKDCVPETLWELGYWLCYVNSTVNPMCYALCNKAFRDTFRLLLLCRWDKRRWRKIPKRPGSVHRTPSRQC
Experimental: (§1) B. By the methods disclosed in J. Med. Chem. (1987), 30, 969-975 was determined the functional selectivity of compound (I): […]

[2] = biological target: T2, M-2 receptor (Cavia porcellus, UniProt H0VRN8); assay: Functional selectivity, guinea-pig atrium (methods of J. Med. Chem. (1987), 30, 969-975); format: cell-based
T2 construct: from tissue; host or cells: guinea-pig atrium
T2 sequence (H0VRN8 1-466): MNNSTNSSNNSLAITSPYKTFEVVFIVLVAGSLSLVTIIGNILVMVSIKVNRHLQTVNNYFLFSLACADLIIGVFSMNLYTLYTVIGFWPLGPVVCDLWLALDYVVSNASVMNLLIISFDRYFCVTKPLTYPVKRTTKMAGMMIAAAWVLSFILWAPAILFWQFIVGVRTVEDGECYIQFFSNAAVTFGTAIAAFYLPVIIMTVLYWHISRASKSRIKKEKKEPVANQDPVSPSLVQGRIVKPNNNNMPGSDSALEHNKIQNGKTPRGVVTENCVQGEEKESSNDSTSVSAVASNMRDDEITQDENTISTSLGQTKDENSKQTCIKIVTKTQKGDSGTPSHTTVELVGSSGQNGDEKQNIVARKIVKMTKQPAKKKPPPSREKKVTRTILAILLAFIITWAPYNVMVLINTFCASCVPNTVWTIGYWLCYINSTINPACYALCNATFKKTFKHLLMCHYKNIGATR
Experimental: as §1

[3] = biological target: muscarinic acetylcholine receptors; assay: NMS/OXO-M displacement: [3H]NMS and [3H]OXO-M Kapp (method of Br. J. Pharmacol. (1988), 93, 437-445); format: binding; conditions: for Kd: Kapp = corrected dissociation constant allowing for ligand occupancy
Experimental: A. By the method disclosed in Br. J. Pharmacol. (1988), 93, 437-445 were determined the NMS/OXO-M data for the compound (I): [^3 H]NMS Kapp =0.025 μM; [^3 H]OXO-M Kapp =0.0017 μM; ratio NMS/OXO-M=15; (Kapp =corrected dissociation constant allowing for ligand occupancy).

[4] = biological target: T3, M-3 receptor (Cavia porcellus, UniProt H0W1Z3); assay: Functional selectivity, guinea-pig myenteric plexus/longitudinal muscle strip (methods of J. Med. Chem. (1987), 30, 969-975); format: cell-based
T3 construct: from tissue; host or cells: guinea-pig myenteric plexus/longitudinal muscle strip
Experimental: as §1

[5] = relative maximum, read-out: Rel. Max.

T3 sequence (H0W1Z3 1-590): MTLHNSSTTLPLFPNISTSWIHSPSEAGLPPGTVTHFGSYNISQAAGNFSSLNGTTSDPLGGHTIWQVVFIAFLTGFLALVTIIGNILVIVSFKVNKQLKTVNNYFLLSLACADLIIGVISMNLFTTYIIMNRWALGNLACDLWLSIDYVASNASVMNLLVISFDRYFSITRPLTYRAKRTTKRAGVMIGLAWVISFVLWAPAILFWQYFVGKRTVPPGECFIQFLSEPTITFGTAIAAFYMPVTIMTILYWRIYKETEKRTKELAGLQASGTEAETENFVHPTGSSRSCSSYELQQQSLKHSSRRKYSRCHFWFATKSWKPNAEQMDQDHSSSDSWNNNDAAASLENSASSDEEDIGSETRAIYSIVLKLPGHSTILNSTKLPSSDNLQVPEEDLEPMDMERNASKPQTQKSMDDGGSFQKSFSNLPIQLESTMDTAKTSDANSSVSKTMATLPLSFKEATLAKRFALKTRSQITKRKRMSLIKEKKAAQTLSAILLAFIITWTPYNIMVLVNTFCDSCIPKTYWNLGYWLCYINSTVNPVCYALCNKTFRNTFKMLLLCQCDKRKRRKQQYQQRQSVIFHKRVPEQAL

C1CC1c1noc([C@H]2CN3CC[C@H]2C3)n1 [compound (I), (3R, 4R)-3-(3-cyclopropyl-1,2,4-oxadiazol-5-yl)-1-azabicyclo[2.2.1]heptane] gave an EC50 [1] of 63.1 nM, an Emax [1, 5] of 55 ± 10% and a Kb ([2]; 95% confidence limits 7.80-8.20, n = 10, slope of Arunlakshana-Schild plot not significantly different from unity, read-out: pA2 (converted)) of 10 nM. The Emax [2, 5] was 0%, the Kd ([3]; radioligand [3H]NMS, read-out: [3H]NMS Kapp) was 25 nM and the Kd ([3]; radioligand [3H]OXO-M, read-out: [3H]OXO-M Kapp) was 1.7 nM. The “ratio NMS/OXO-M” value ([3]; ratio of Kapp values) was 15, the Kb ([4]; 95% confidence limits 7.90-8.40, n = 12, slope of Arunlakshana-Schild plot not significantly different from unity, read-out: pA2 (converted)) was 7.08 nM and the Emax [4, 5] was 0%.
